# Values quoted from earlier work, collected in paper PMC7070898 (Clinical and Translational Science, 2019).
# How the values were obtained:
# BTK = BTK (Homo sapiens, UniProt Q06187); conditions: single dose, cited from earlier work
# [1] = patients receiving acalabrutinib ref 12; cited from earlier work
# BTK, sequence (Q06187 whole entry): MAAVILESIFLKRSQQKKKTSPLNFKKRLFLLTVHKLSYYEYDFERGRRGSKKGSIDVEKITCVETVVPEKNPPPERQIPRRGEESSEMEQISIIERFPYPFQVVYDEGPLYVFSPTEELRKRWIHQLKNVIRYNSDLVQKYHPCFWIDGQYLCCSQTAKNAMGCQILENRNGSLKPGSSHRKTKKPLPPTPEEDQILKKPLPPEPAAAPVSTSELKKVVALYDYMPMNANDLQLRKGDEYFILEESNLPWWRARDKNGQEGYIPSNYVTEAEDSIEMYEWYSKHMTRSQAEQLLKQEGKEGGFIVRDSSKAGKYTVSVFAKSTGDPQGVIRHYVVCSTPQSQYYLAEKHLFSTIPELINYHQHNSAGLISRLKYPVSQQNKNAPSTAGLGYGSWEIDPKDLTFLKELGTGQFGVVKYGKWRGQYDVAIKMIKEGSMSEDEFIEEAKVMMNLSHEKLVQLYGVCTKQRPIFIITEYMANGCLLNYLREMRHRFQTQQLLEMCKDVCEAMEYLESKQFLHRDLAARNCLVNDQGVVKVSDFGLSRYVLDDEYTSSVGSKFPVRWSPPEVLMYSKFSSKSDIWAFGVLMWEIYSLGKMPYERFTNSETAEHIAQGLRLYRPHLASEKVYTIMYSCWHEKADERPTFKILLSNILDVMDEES
Compound,"BTK occupancy (BTK; five of six healthy subjects, ≤ 4 hours after administration ref 21) [%]",duration of complete or near‐complete BTK occupancy (BTK; healthy subjects ref 21) [h],"atrial fibrillation/flutter, patients [1] [%]"
C=CC(=O)Nc1cccc(Nc2nc(Nc3ccc(OCCOC)cc3)ncc2F)c1 [CC‐292],> 98,8 to 24,–
CC#CC(=O)N1CCC[C@H]1c1nc(-c2ccc(C(=O)Nc3ccccn3)cc2)c2c(N)nccn12 [acalabrutinib],–,–,3
